These results are taken from US20220241416A1, “METHODS FOR THE IDENTIFICATION OF SARM1 NADASE ACTIVITY INHIBITORS AND USES THEREOF” (Bar Ilan University, priority 2021, published 2022).

Entries after “also recorded” stand apart in the source; their conditions may differ. Like-named read-outs stand apart in the source and are kept apart here.

Broadly, the EC50 is the concentration that produces a half-maximal response. Usually IC50 stands for the concentration that gives 50% inhibition. Low readings indicate higher potency, high ones lower potency.

The target in series [1] is T1, hSARM1 (Homo sapiens, UniProt Q6SZW1).
T1 construct: hSARM1w.t; (26ERL . . . GPT724) that was not mutated in E642, was also expressed and isolated; 6xHis (N); TEV cleavage site (N); made in house; host or cells: HEK293F suspension cells
T1 sequence (Q6SZW1 with tags, fused parts or gaps): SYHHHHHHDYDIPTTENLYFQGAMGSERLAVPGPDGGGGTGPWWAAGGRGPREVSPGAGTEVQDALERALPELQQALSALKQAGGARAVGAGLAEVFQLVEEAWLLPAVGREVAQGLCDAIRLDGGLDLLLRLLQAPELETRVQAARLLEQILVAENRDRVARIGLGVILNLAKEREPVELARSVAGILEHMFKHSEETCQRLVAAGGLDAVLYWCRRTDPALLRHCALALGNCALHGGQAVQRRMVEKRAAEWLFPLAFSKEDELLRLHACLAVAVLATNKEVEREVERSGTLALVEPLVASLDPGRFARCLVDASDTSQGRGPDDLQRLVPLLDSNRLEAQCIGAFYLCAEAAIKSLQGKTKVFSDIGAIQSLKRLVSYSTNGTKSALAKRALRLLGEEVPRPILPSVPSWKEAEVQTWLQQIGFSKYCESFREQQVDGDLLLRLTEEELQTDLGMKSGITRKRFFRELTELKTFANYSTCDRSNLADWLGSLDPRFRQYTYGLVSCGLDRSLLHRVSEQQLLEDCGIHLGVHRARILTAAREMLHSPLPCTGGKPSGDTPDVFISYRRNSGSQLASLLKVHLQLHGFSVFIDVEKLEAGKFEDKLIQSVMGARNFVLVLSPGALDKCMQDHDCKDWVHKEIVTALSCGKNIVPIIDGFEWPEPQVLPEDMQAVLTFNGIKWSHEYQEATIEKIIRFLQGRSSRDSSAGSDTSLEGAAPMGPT
In words: HPLC analysis of time dependent NAD+ consumption by hSARM1. Type of series: biochemical. Particulars: 50 μM NAD+. On the procedure: Purified hSARM1w.t. was first diluted to 800 nM in 25 mM HEPES pH 7.5, 150 mM NaCl, and then mixed in 37° C. with different concentrations of NAD+(in the same buffer) in a 1:1 v/v ratio and incubated for 0, 5 and 30 min. 1:100 (v/v). BSA (NEB Inc. 20 mg/ml) was included, and reactions were stopped by heating at 95° C. for 2 minutes. Where specified, NMN (Sigma-Aldrich-N3501) was added in different concentrations. For control, NAD+ consumption was compared to a commercially available porcine brain NADase 0.025 units/ml (Sigma-Aldrich-N9879).
HPLC measurements were performed using a Merck Hitachi Elite LaChrom HPLC system equipped with an autosampler, UV detector and quaternary pump. HPLC traces were monitored at 260 nm and integrated using EZChrom Elite software. 10 μL of each sample were injected onto a Waters Spherisorb ODS1 C18 RP HPLC Column (5 μm particle size, 4.6 mm×150 mm ID). HPLC solvents are: A: 100% methanol; B: 120 mM sodium phosphate pH 6.0; C double-distilled water (DDW). The column was pre-equilibrated with B:C mixture ratio of 80:20. Chromatography was performed at room temperature with a flow rate of 1.5 ml/min. Each analysis cycle was 12 min long as follows (A:B:C, v/v): fixed 0:80:20 0-4 min; gradient to 20:80:0 4-6 min; fixed 20:80:0 from 6-9 min. gradient to 0:80:20 from 9-10 min; fixed 0:80:20 from 10-12 min. The NAD+ hydrolysis product ADPR was eluted at the isocratic stage of the chromatography while NAD+ elutes in the methanol gradient stage.

The target in series [2] is T1, hSARM1. Kind of series: Determination of IC50 and mode of inhibition of hSARM1 NADase (ADPR by HPLC). Type of series: biochemical. Particulars: for mode of inhibition, Lineweaver-Burk plot: 10 μM inhibitor, NAD+ 1-160 μM; for IC50: 50 μM NAD+, 10 min pre-incubation at room temperature, 10 min at 37° C.
The next series deals with T2, zfSARM1 (Danio rerio, UniProt F1QWA8).
T2 sequence (F1QWA8 1-713): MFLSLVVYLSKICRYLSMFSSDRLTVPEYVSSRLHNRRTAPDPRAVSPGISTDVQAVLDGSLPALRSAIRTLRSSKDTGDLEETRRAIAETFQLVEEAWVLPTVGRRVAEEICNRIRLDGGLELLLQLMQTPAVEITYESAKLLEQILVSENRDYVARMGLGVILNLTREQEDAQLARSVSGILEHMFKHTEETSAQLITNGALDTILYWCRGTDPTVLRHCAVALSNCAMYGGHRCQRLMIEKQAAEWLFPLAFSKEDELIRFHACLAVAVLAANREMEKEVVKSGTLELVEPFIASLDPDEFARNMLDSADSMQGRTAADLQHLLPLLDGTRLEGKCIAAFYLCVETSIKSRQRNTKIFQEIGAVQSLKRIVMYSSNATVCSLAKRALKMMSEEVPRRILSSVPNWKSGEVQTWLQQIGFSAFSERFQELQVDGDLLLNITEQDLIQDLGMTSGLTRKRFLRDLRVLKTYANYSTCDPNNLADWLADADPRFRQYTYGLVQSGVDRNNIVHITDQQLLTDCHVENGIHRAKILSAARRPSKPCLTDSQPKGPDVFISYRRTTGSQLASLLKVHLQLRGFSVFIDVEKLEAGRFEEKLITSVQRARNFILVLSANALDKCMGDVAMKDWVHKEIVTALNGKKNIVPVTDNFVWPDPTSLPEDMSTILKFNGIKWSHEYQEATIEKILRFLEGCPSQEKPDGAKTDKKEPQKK
In words: Effect of hSARM1 inhibitors on zfSARM1 NADase activity (ADPR by HPLC). The class given is biochemical, Zebrafish.

Series [3] concerns Mouse DRG explants. In words: Axon degeneration assay after axotomy, DRG explants. The class given is cell-based. Particulars: 10-30 μM compound; 16 hours post axotomy. As to the method: (§1) FIG. 15A. Mouse DRG explants cultures were grown in NGF containing media for 96 hours. Right before axotomy, the media was exchanged and supplemented with either 10-30 μM of the hSARM1 inhibitory compounds or just with 0.2% DMSO for control, and then the culture were left to grow for additional 16 hours. The white dashed lines indicate cut site (axotomy). To evaluate toxic side effects, we applied […] of the inhibitory compounds without performing axotomy. The axons were stained with anti-Tuj1 antibody.
(§2) Dorsal root ganglion (DRG) were dissected from E13.5 wild-type mice and plated in 8-wells chamber coated with 10 μg/ml poly-d-lysin (Sigma-Aldrich, St Louis. Mo.) and 10 μg/ml mouse Laminin (Sigma-Aldrich). The DRGs were grown in Neurobasal™-A (NB, GIBCO, 10888022) medium supplemented with B27 (Gibco, Waltham, Mass.), penicillin-streptomycin solution, glutamine (Biological Industries, Beit HaEmek, Israel), and NGF (Alomone Labs. Jerusalem, Israel) in a humidified incubator (37° C. 5% CO2).
(§3) After 96 h, the medium was exchanged to NGF containing medium, supplemented with 10-30 μM SARM1 inhibitory compounds, which were first dissolved in DMSO to a 10 mM stock concentration. For axotomy, axons were cut using a needle, in close proximity to the cell body and were examined 16 hours post-axotomy. […]
(§4) Images were binarized such that pixels corresponding to axons converted to white, while all other regions converted to black. The images were analyzed using Image) software with algorithm that distinguishes fragmented from intact axonal segments. To each image we calculated the degeneration index (DI) defined as the ratio of fragmented to intact axon number. To quantify axonal protection, we normalized the DI values to DMSO with axotomy, and then we divide one by each calculated value. […] To quantify axonal degeneration caused by the compounds' toxicity, we normalized the DI values to DMSO control without axotomy and generated a degeneration index. From each explant, 4 nonoverlapping frames were randomly collected and quantified per experimental condition.

Series [4] relates to Mouse DRG explants. Kind of series: Toxic side effects on DRG explants without axotomy. Particulars: 10-30 μM compound; no axotomy. Type of series: cell-based. As to the method:
as §1, §2, §3, §4

The target in the next series is hSARM1 FP255-6RR (human) (UniProt Q6SZW1). Kind of series: cell-based or functional assay.
The target of series [5] is hSARM1RR216-7EE/FP255-6RR (human) (UniProt Q6SZW1). Kind of series: cell-based or functional assay.

In the case of `NC(=O)c1ccc[n+]([C@@H]2O[C@H](COP(=O)([O-])O)[C@@H](O)[C@H]2O)c1` [NMN, nicotinamide mononucleotide, reference compound], on hSARM1 [1] (0.2 mM NMN), the “effect on hSARM1 NADase activity” value is reported as “no visible effect”. Also, the “increase in hSARM1 NADase activity” value at hSARM1 [1] (1 mM NMN) stood at 30%.

As for `O=NN1CCCCC1` [TK138], at hSARM1 [2], the “mode of inhibition, Lineweaver-Burk plot” value is “competitive pattern”. Besides, the EC50 on zfSARM1 (50 μM NAD+, ADPR production by HPLC, read-out: EC50, activation of zfSARM1 NADase) stood at 2.7 µM. For the same molecule, in the series with Mouse DRG explants [3], the “protection of axons after axotomy” value was “high level of protection; also recorded: highest level of protection”. Also, the “toxic effect on axons without axotomy” value in the series on Mouse DRG explants [4] is reported as “only very mildly toxic; also recorded: significant toxic effect”.

With `CCOC(=O)Cn1sc2nc(C)cc(C)c2c1=O` [TK142], on hSARM1 [2], the “mode of inhibition, Lineweaver-Burk plot” value is listed as “competitive pattern” and the IC50 is at most 10 µM. For the same molecule, the “effect on zfSARM1 NADase activity (words)” value at zfSARM1 is recorded as “concentration-dependent inhibitory effects”. Also, the “effect on zfSARM1 NADase activity (words)” value at zfSARM1 (listed as TK 142) was “specific inhibitory effect”. The “protection of axons after axotomy” value in the series with Mouse DRG explants [3] was “only mild protection”. The “toxic effect on axons without axotomy” value in the series with Mouse DRG explants [4] was “not toxic at all”.

As for `O=C(c1ccccn1)N1C[C@H]2OC(=O)N(CCCN3CCOCC3)[C@H]2C1` [TK174], the IC50 against hSARM1 [2] was at most 10 µM. Besides, in the series with Mouse DRG explants [3], the “protection of axons after axotomy” value was “did not protect axons after axotomy”. Besides, in the series with Mouse DRG explants [4], the “toxic effect on axons without axotomy” value was “not toxic”.

In turn, “hSARM1 FP255-6RR (from UniProt Q6SZW1 26-724) (enzyme)” showed a cell death 24 hours after transfection (resazurin fluorescence assay, HEK-293T cells) with hSARM1 FP255-6RR (human) of 50%.

Consider “hSARM1RR216-7EE/FP255-6RR (from UniProt Q6SZW1 26-724) (enzyme)”, for which the cell death 24 hours after transfection (resazurin fluorescence assay, HEK-293T cells) in series [5] was determined as 50%.
